Reference: US20210363254A1, “PHARMACEUTICAL COMBINATIONS” (Novartis AG, priority 2018, published 2021)
Read-outs that look alike come from different tables or passages of the source.

With `COc1ncc(-c2nc3c(n2C(C)C)[C@H](c2ccc(Cl)cc2)N(c2cc(Cl)cn(C)c2=O)C3=O)c(OC)n1` [HDM201, (S)-5-(5-Chloro-1-methyl-2-oxo-1,2-dihydro-pyridin-3-yl)-6-(4-chloro-phenyl)-2-(2,4-dimethoxy-pyrimidin-5-yl)-1-isopropyl-5,6-dihydro-1H-pyrrolo[3,4-d]imidazol-4-one] the “Hyperkalaemia, Grade 3/4” value (1B 200 mg, N=3) was 0 n (%), the “Hypocalcaemia, All Grades” value (1B 200 mg, N=3) was 0 n (%) and the “Hypocalcaemia, Grade 3/4” value (1B 200 mg, N=3) was 0 n (%). The “Influenza Like Illness, All Grades” value (1B 200 mg, N=3) was 0 n (%), the “Influenza Like Illness, Grade 3/4” value (1B 200 mg, N=3) was 0 n (%) and the “Lethargy, All Grades” value (1B 200 mg, N=3) was 0 n (%). The “Lethargy, Grade 3/4” value (1B 200 mg, N=3) was 0 n (%), the “Leukopenia, All Grades” value (1B 200 mg, N=3) was 0 n (%) and the “Leukopenia, Grade 3/4” value (1B 200 mg, N=3) was 0 n (%). For the same molecule, the “Lipase Increased, All Grades” value (1B 200 mg, N=3) was 1 (33.3) n (%), the “Lipase Increased, Grade 3/4” value (1B 200 mg, N=3) was 1 (33.3) n (%) and the “Lymphopenia, All Grades” value (1B 200 mg, N=3) was 0 n (%). For the same molecule, the “Lymphopenia, Grade 3/4” value (1B 200 mg, N=3) was 0 n (%), the “Monocytosis, All Grades” value (1B 200 mg, N=3) was 0 n (%) and the “Monocytosis, Grade 3/4” value (1B 200 mg, N=3) was 0 n (%). For the same molecule, the “Musculoskeletal Pain, All Grades” value (1B 200 mg, N=3) was 0 n (%), the “Musculoskeletal Pain, Grade 3/4” value (1B 200 mg, N=3) was 0 n (%) and the “Myalgia, All Grades” value (1B 200 mg, N=3) was 0 n (%). The “Myalgia, Grade 3/4” value (1B 200 mg, N=3) was 0 n (%), the “Nausea, All Grades” value (1B 200 mg, N=3) was 1 (33.3) n (%) and the “Nausea, Grade 3/4” value (1B 200 mg, N=3) was 0 n (%). For the same molecule, the “Neuralgia, All Grades” value (1B 200 mg, N=3) was 0 n (%), the “Neuralgia, Grade 3/4” value (1B 200 mg, N=3) was 0 n (%) and the “Neutropenia, All Grades” value (1B 200 mg, N=3) was 0 n (%). For the same molecule, the “Neutropenia, Grade 3/4” value (1B 200 mg, N=3) was 0 n (%), the “Neutrophil Count Decreased, All Grades” value (1B 200 mg, N=3) was 0 n (%) and the “Neutrophil Count Decreased, Grade 3/4” value (1B 200 mg, N=3) was 0 n (%). The “Oedema, All Grades” value (1B 200 mg, N=3) was 1 (33.3) n (%), the “Oedema, Grade 3/4” value (1B 200 mg, N=3) was 0 n (%) and the “Oral Candidiasis, All Grades” value (1B 200 mg, N=3) was 0 n (%). For the same molecule, the “Oral Candidiasis, Grade 3/4” value (1B 200 mg, N=3) was 0 n (%), the “Platelet Count Decreased, All Grades” value (1B 200 mg, N=3) was 0 n (%) and the “Platelet Count Decreased, Grade 3/4” value (1B 200 mg, N=3) was 0 n (%). For the same molecule, the “Pruritus, All Grades” value (1B 200 mg, N=3) was 0 n (%), the “Pruritus, Grade 3/4” value (1B 200 mg, N=3) was 0 n (%) and the “Thrombocytopenia, All Grades” value (1B 200 mg, N=3) was 0 n (%). For the same molecule, the “Thrombocytopenia, Grade 3/4” value (1B 200 mg, N=3) was 0 n (%), the “Total, All Grades” value (1B 200 mg, N=3) was 3 (100) n (%) and the “Total, Grade 3/4” value (1B 200 mg, N=3) was 1 (33.3) n (%). For the same molecule, the “Vomiting, All Grades” value (1B 200 mg, N=3) was 0 n (%), the “Vomiting, Grade 3/4” value (1B 200 mg, N=3) was 0 n (%) and the “Weight Decreased, All Grades” value (1B 200 mg, N=3) was 0 n (%). For the same molecule, the “Weight Decreased, Grade 3/4” value (1B 200 mg, N=3) was 0 n (%), the “White Blood Cell Count Decreased, All Grades” value (1B 200 mg, N=3) was 0 n (%) and the “White Blood Cell Count Decreased, Grade 3/4” value (1B 200 mg, N=3) was 0 n (%). For the same molecule, the “Abdominal Pain, All Grades” value (1B all subjects, N=20) was 3 n (%), the “Abdominal Pain, Grade 3/4” value (1B all subjects, N=20) was 0 n (%) and the “Alanine Aminotransferase Increased, All Grades” value (1B all subjects, N=20) was 1 n (%). For the same molecule, the “Alanine Aminotransferase Increased, Grade 3/4” value (1B all subjects, N=20) was 0 n (%), the “Alopecia, All Grades” value (1B all subjects, N=20) was 1 n (%) and the “Alopecia, Grade 3/4” value (1B all subjects, N=20) was 0 n (%). For the same molecule, the “Amylase Increased, All Grades” value (1B all subjects, N=20) was 1 n (%), the “Amylase Increased, Grade 3/4” value (1B all subjects, N=20) was 0 n (%) and the “Anaemia, All Grades” value (1B all subjects, N=20) was 5 n (%). For the same molecule, the “Anaemia, Grade 3/4” value (1B all subjects, N=20) was 0 n (%), the “Asthenia, All Grades” value (1B all subjects, N=20) was 2 n (%) and the “Asthenia, Grade 3/4” value (1B all subjects, N=20) was 0 n (%). For the same molecule, the “Blood Bilirubin Increased, All Grades” value (1B all subjects, N=20) was 1 n (%), the “Blood Bilirubin Increased, Grade 3/4” value (1B all subjects, N=20) was 0 n (%) and the “Blood Creatine Phosphokinase Increased, All Grades” value (1B all subjects, N=20) was 2 n (%). The “Blood Creatine Phosphokinase Increased, Grade 3/4” value (1B all subjects, N=20) was 1 n (%), the “Blood Creatinine Increased, All Grades” value (1B all subjects, N=20) was 2 n (%) and the “Blood Creatinine Increased, Grade 3/4” value (1B all subjects, N=20) was 0 n (%). For the same molecule, the “Decreased Appetite, All Grades” value (1B all subjects, N=20) was 4 n (%), the “Decreased Appetite, Grade 3/4” value (1B all subjects, N=20) was 0 n (%) and the “Dehydration, All Grades” value (1B all subjects, N=20) was 1 n (%). The “Dehydration, Grade 3/4” value (1B all subjects, N=20) was 0 n (%), the “Diarrhoea, All Grades” value (1B all subjects, N=20) was 5 n (%) and the “Diarrhoea, Grade 3/4” value (1B all subjects, N=20) was 0 n (%). For the same molecule, the “Dry Skin, All Grades” value (1B all subjects, N=20) was 1 n (%), the “Dry Skin, Grade 3/4” value (1B all subjects, N=20) was 0 n (%) and the “Dysgeusia, All Grades” value (1B all subjects, N=20) was 1 n (%). The “Dysgeusia, Grade 3/4” value (1B all subjects, N=20) was 0 n (%), the “Eye Pain, All Grades” value (1B all subjects, N=20) was 1 n (%) and the “Eye Pain, Grade 3/4” value (1B all subjects, N=20) was 0 n (%). For the same molecule, the “Fatigue, All Grades” value (1B all subjects, N=20) was 4 n (%), the “Fatigue, Grade 3/4” value (1B all subjects, N=20) was 1 n (%) and the “Folliculitis, All Grades” value (1B all subjects, N=20) was 1 n (%). The “Folliculitis, Grade 3/4” value (1B all subjects, N=20) was 0 n (%), the “Gamma-Glutamyltransferase Increased, All Grades” value (1B all subjects, N=20) was 1 n (%) and the “Gamma-Glutamyltransferase Increased, Grade 3/4” value (1B all subjects, N=20) was 0 n (%). The “Headache, All Grades” value (1B all subjects, N=20) was 1 n (%), the “Headache, Grade 3/4” value (1B all subjects, N=20) was 0 n (%) and the “Hyperkalaemia, All Grades” value (1B all subjects, N=20) was 1 n (%). The “Hyperkalaemia, Grade 3/4” value (1B all subjects, N=20) was 0 n (%), the “Hypocalcaemia, All Grades” value (1B all subjects, N=20) was 1 n (%) and the “Hypocalcaemia, Grade 3/4” value (1B all subjects, N=20) was 0 n (%). For the same molecule, the “Influenza Like Illness, All Grades” value (1B all subjects, N=20) was 1 n (%), the “Influenza Like Illness, Grade 3/4” value (1B all subjects, N=20) was 0 n (%) and the “Lethargy, All Grades” value (1B all subjects, N=20) was 1 n (%). For the same molecule, the “Lethargy, Grade 3/4” value (1B all subjects, N=20) was 0 n (%), the “Leukopenia, All Grades” value (1B all subjects, N=20) was 2 n (%) and the “Leukopenia, Grade 3/4” value (1B all subjects, N=20) was 1 n (%). For the same molecule, the “Lipase Increased, All Grades” value (1B all subjects, N=20) was 4 n (%), the “Lipase Increased, Grade 3/4” value (1B all subjects, N=20) was 3 n (%) and the “Lymphopenia, All Grades” value (1B all subjects, N=20) was 2 n (%). For the same molecule, the “Lymphopenia, Grade 3/4” value (1B all subjects, N=20) was 1 n (%), the “Monocytosis, All Grades” value (1B all subjects, N=20) was 1 n (%) and the “Monocytosis, Grade 3/4” value (1B all subjects, N=20) was 0 n (%). For the same molecule, the “Musculoskeletal Pain, All Grades” value (1B all subjects, N=20) was 1 n (%), the “Musculoskeletal Pain, Grade 3/4” value (1B all subjects, N=20) was 0 n (%) and the “Myalgia, All Grades” value (1B all subjects, N=20) was 1 n (%). For the same molecule, the “Myalgia, Grade 3/4” value (1B all subjects, N=20) was 0 n (%) and the “Nausea, All Grades” value (1B all subjects, N=20) was 12 n (%).
